Measured values: patent US20260209196A1, “AMIDINOUREA DERIVATIVES AND THEIR USE IN THE TREATMENT OF CANCER” (UNIVERSITE COTE D'AZUR, priority 2022, published 2026)
Where two headings read alike, the source gives them in different places.

What was measured:
[1] = tested on: NCI 60 cell panel; assay: DTP-NCI assay (NCI 60 cell screen, single high dose); assay type: cell-based; conditions: Homo sapiens, 48 h; single high dose 10^-5 M, full NCI 60 cell panel; growth relative to no-drug control and to time zero number of cells; read-out: DTP-NCI (mean of the percent growth of treated cells)
Procedure: The effect of 10 μM of MTF504 was monitored on a panel 60 cell lines representing nine distinct tumour types: leukemia, colon, lung, central nervous system, renal, melanoma, ovarian, breast and prostate. Briefly, the compound was sent to the US National Cancer Institute where its antineoplastic effects were monitored on the panel of cell lines after 48 hours of treatment following a standardized protocol.
All compounds submitted to the NCI 60 Cell screen are tested initially at a single high dose (10^-5 M) in the full NCI 60 cell panel. The results are reported as a mean of the percent growth of treated cells. The number reported is growth relative to the no-drug control, and relative to the time zero number of cells. This allows detection of […].

[2] = tested on: A375; assay: Cell viability of A375 melanoma cells by Trypan Blue exclusion; assay type: cell-based; conditions: Homo sapiens, A-375, viable cells as mean percentage of control cells ± SEM, N=3
Procedure: The BRAFV600E mutant melanoma line A375 (CRL-1619) was purchased from ATCC (Manassas, VA, USA). The A375 were maintained in glutamine-containing DMEM supplemented with 10% heat-inactivated fetal bovine serum, penicillin (100 units/ml) and streptomycin ([…]).
Cell viability was measured by the Trypan Blue exclusion method. Briefly, cells washed with PBS were harvested by a 3-minute incubation in 0.05% trypsin before neutralization with serum containing medium. An aliquot of the cell suspension was then mixed 1:1 with a 0.4% Trypan blue solution and viable cells were counted within 5 minutes on Kova slides under an optical microscope. Results are expressed as the mean percentage of control cells±SEM. N=3

[3] = 24 h, read-out: Viab A375 5 μM/24 h
[4] = 48 h, read-out: Viab A375 5 μM/48 h
[5] = 24 h, read-out: Viab A375 10 μM/24 h
[6] = 48 h, read-out: Viab A375 10 μM/48 h

| Compound | activity at 10 µM [1] [%] | viability at 5 µM [2, 3] [%] | viability at 5 µM [2, 4] [%] | viability at 10 µM [2, 5] [%] | viability at 10 µM [2, 6] [%] |
| --- | --- | --- | --- | --- | --- |
| N=C(NC(=O)Nc1ccccc1F)Nc1nc2ccccc2s1 [MTF654, N-benzo[d]thiazol-2-yl-N″-(2-fluoroaniline-carbonyl)-guanidine] | 20.3 |  |  |  |  |
| N=C(NC(=O)Nc1cccc(Cl)c1)Nc1nc2ccccc2s1 [MTF415, N-benzo[d]thiazol-2-yl-N″-(3-chloroaniline-carbonyl)-guanidine] | 35.4 | 93.5 | 32.9 | 58.3 | 19.9 |
| N=C(NC(=O)Nc1ccc(Cl)cc1)Nc1nc(-c2cccc([N+](=O)[O-])c2)cs1 [MTF428, N-4-(3-nitrophenyl) thiazol-2-yl-N″-(4-chloroaniline-carbonyl)-guanidine] |  | 128 | 50.2 |  |  |
| Cc1ccc(Cl)cc1NC(=O)NC(=N)Nc1nc2ccccc2s1 [MTF656, N-benzo[d]thiazol-2-yl-N″-(2-methyl-5-chloroaniline-carbonyl)-guanidine] | -19.4 |  |  |  |  |
| Cc1ccccc1NC(O)NC(=N)Nc1nc(-c2cccc([N+](=O)[O-])c2)cs1 (stereo not shown) [MTF515, N-4-(3-nitrophenyl) thiazol-2-yl-N″-(2-methylaniline-carbonyl)-guanidine] | 37.7 | 64.9 | 28.7 |  |  |
| N=C(NC(=O)NC1CC1)Nc1nc2ccccc2s1 [MTF214, N—(N-(benzo[d]thiazol-2-yl)carbamimidoyl)cyclopropylamine-1-carboxamide] |  | 98.2 | 76.6 | 51.5 | 87.7 |
| CCc1ccccc1NC(=O)NC(=N)Nc1nc2ccccc2s1 [MTF653, N-benzo[d]thiazol-2-yl-N″-(2-ethylaniline-carbonyl)-guanidine] | 0.27 |  |  |  |  |
| N=C(NC(=O)Nc1ccc(Cl)cc1Cl)Nc1nc2ccccc2s1 [MTF649, N-benzo[d]thiazol-2-yl-N″-(2,4-dichloroaniline-carbonyl)-guanidine] | -58.2 |  |  |  |  |
| Cc1ccccc1NC(=O)NC(=N)Nc1nc(C)c(C)s1 [MTF509, 4,5-dimethylthiazol-2-yl-N″-(2-methylaniline-carbonyl)-guanidine] | 29.3 | 23 | 13.6 |  |  |
| Cc1nc(NC(=N)NC(=O)Nc2cccc([N+](=O)[O-])c2)sc1C [MTF512, 4,5-dimethylthiazol-2-yl-N″-(3-nitroaniline-carbonyl)-guanidine] |  | 87 | 54.3 |  |  |
| N=C(NC(=O)Nc1ccccc1Cl)Nc1nc2ccc([N+](=O)[O-])cc2s1 [MTF657, N-6-nitrobenzo[d]thiazol-2-yl-N″-(2-chloroaniline-carbonyl)-guanidine] | 31.2 |  |  |  |  |
| COc1cccc(NC(=O)NC(=N)Nc2nc(-c3cccc([N+](=O)[O-])c3)cs2)c1 [MTF432, N-4-(3-nitrophenyl) thiazol-2-yl-N″-(3-methoxyaniline-carbonyl)-guanidine] | 74.8 | 115 | 29.8 |  |  |
| CCOc1ccccc1NC(=O)NC(=N)Nc1nc2ccccc2s1 [MTF652, N-benzo[d]thiazol-2-yl-N″-(2-ethoxyaniline-carbonyl)-guanidine] | 12.6 |  |  |  |  |
| Cc1cccc(NC(=O)NC(=N)Nc2nc(-c3cccc([N+](=O)[O-])c3)cs2)c1 [MTF431, N-4-(3-nitrophenyl) thiazol-2-yl-N″-(3-methylaniline-carbonyl)-guanidine] |  | 95.4 | 41.6 |  |  |
| Cc1nc(NC(=N)NC(=O)Nc2ccc(Br)cc2)sc1C [MTF429, 4,5-dimethylthiazol-2-yl-N″-(4-bromoaniline-carbonyl)-guanidine] |  | 94.2 | 39.1 |  |  |
| Cc1nc(NC(=N)NC(=O)Nc2ccccc2)sc1C [MTF496, 4,5-dimethylthiazol-2-yl-N″-(aniline-carbonyl)-guanidine] | 83.8 | 67.7 | 56.6 |  |  |
| N=C(NC(=O)Nc1ccccc1[N+](=O)[O-])Nc1nc2ccccc2s1 [MTF655, N-benzo[d]thiazol-2-yl-N″-(2-nitroaniline-carbonyl)-guanidine] | 11.6 |  |  |  |  |

| Compound | activity at 10 µM [1] [%] | viability at 5 µM [2, 3] [%] | viability at 5 µM [2, 4] [%] | viability at 10 µM [2, 5] [%] | viability at 10 µM [2, 6] [%] |
| --- | --- | --- | --- | --- | --- |
| N=C(NC(=O)Nc1ccccc1Br)Nc1nc2ccccc2s1 [MTF651, N-benzo[d]thiazol-2-yl-N″-(2-bromoaniline-carbonyl)-guanidine] | -17.8 |  |  |  |  |
| N=C(NC(=O)Nc1c(Cl)cccc1Cl)Nc1nc2ccccc2s1 [MTF650, N-benzo[d]thiazol-2-yl-N″-(2,6-dichloroaniline-carbonyl)-guanidine] | 36.4 |  |  |  |  |
| COc1cccc(NC(=O)NC(=N)Nc2nc(C)c(C)s2)c1 [MTF511, 4,5-dimethylthiazol-2-yl-N″-(3-methoxyaniline-carbonyl)-guanidine] |  | 92.1 | 82.8 |  |  |
| N=C(NC(=O)Nc1cccc2ccccc12)Nc1nc(-c2cccc([N+](=O)[O-])c2)cs1 [MTF430, N-4-(3-nitrophenyl) thiazol-2-yl-N″-(naphtalen-1-amine-carbonyl)-guanidine] | 89.2 | 75.8 | 25.3 |  |  |
| N=C(NC(=O)Nc1ccc(Cl)cc1)Nc1nc(-c2ccccc2)cs1 [MTF426, N-4-phenylthiazol-2-yl-N″-(4-chloroaniline-carbonyl)-guanidine] |  | 109 | 46.4 |  |  |
| COc1ccccc1NC(=O)NC(=N)Nc1nc(-c2ccccc2)cs1 [MTF433, N-4-phenylthiazol-2-yl-N″-(2-methoxyaniline-carbonyl)-guanidine] |  | 109 | 43.9 |  |  |
| Cc1nc(NC(=N)NC(=O)Nc2cccc(Cl)c2)sc1C [MTF506, 4,5-dimethylthiazol-2-yl-N″-(3-chloroaniline-carbonyl)-guanidine] | 67.7 | 64.3 | 54.5 |  |  |
| COc1ccccc1NC(=O)NC(=N)Nc1nc2ccccc2s1 [MTF419, N-benzo[d]thiazol-2-yl-N″-(2-methoxyaniline-carbonyl)-guanidine] | 26.7 | 62.6 | 18.8 | 56.8 | 21.8 |
| Cc1ccccc1NC(=O)NC(=N)Nc1nc2ccccc2s1 [MTF495, N-benzo[d]thiazol-2-yl-N″-(2-methylaniline-carbonyl)-guanidine] | 25.9 | 38.6 | 8 |  |  |
| N=C(NC(=O)Nc1ccccc1)Nc1nc2ccccc2s1 [MTF314, N—(N-(benzo[d]thiazol-2-yl)carbamimidoyl)-anilinocarboxamide] | 37.4 | 53.5 | 12.3 | 32.7 | 7.6 |
| Cc1cccc(NC(=O)NC(=N)Nc2nc3ccccc3s2)c1 [MTF420, N-benzo[d]thiazol-2-yl-N″-(3-methylaniline-carbonyl)-guanidine] | 32.9 | 59 | 24.8 | 48.9 | 20.4 |
| N=C(NC(=O)Nc1cccc2ccccc12)Nc1nc2ccccc2s1 [MTF418, N-benzo[d]thiazol-2-yl-N″-(naphtalen-1-amine-carbonyl)-guanidine] | 26.1 | 16.5 | 16.7 | 41 | 4.6 |
| N=C(NC(=O)Nc1cccc2ccccc12)Nc1nc(-c2ccccc2)cs1 [MTF435, N-4-phenylthiazol-2-yl-N″-(naphtalen-1-amine-carbonyl)-guanidine] |  | 81 | 84.6 |  |  |
| Cc1nc(NC(=N)NC(=O)Nc2ccccc2Cl)sc1C [MTF505, 4,5-dimethylthiazol-2-yl-N″-(2-chloroaniline-carbonyl)-guanidine] | 33 | 31.1 | 10 |  |  |
| N=C(NC(=O)Nc1ccc(Br)cc1)Nc1nc(-c2cccc([N+](=O)[O-])c2)cs1 [MTF427, N-4-(3-nitrophenyl) thiazol-2-yl-N″-(4-bromoaniline-carbonyl)-guanidine] | 72.5 | 94.2 | 34.4 |  |  |
| Cc1nc(NC(=N)NC(=O)Nc2ccc(Cl)cc2)sc1C [MTF507, 4,5-dimethylthiazol-2-yl-N″-(4-chloroaniline-carbonyl)-guanidine] |  | 98.9 | 139 |  |  |
| COc1ccccc1NC(=O)NC(=N)Nc1nc(-c2cccc([N+](=O)[O-])c2)cs1 [MTF434, N-4-(3-nitrophenyl) thiazol-2-yl-N″-(2-methoxyaniline-carbonyl)-guanidine] |  | 63.8 | 50.7 |  |  |
